Values quoted from earlier work, collected in patent US20140073698A1 (Aventis Pharma S.A., priority 2011, published 2014).

Settings: @pH=1; simulation input

CC(C(=O)O)c1cccc(C(=O)c2ccccc2)c1 (stereo not shown) [Ketoprofen, 2-(3-benzoylphenyl)propionic acid]
Reference Log D: 3.16
